Consider six compounds from patent US4118561A, “7-(Substituted)-7H-pyrrolo[3,2-f]quinazoline-1,3-diamines” (priority 1977, dated 1978).

For data set [1], the system named is Plasmodium berghei KBG 173. Description: Antimalarial blood schizonticidal test in mice. The class given is in vivo, Plasmodium berghei (infected ICR/HA Swiss mice). On the set-up: ΔMST (increase in mean survival time): unit: days. The conditions noted are these: for ED100 / minimal effective dose: Plasmodium berghei, sc, single dose; for ED100: read-out: Lowest Dose Curing All Mice; for minimal effective dose: read-out: Min. Curing Dose; for Cure/Treat at Min. Curing Dose: at the Min. Curing Dose. An excerpt: (§1) In addition, the invention provides compounds which have antimalarial activity in vivo as evidenced by a standard blood schizonticidal test in mice infected with Plasmodium berghei KBG 173.
(§2) Utilizing young ICR/HA Swiss mice and a standard inoculum of Plasmodium berghei KBG 173, it is possible to produce a uniform disease fatal to 100% of untreated animals within 6 to 8 days with a mean survival time of 6.2 days. Test animals weigh from 18 to 22 grams but weight variations in any given experimental or control group are confined to 2-3 grams. All animals in any given test are approximately of the same age. Animals on test are housed in metal-topped plastic cages, given a standard laboratory diet and water ad libitum.
(§3) Test animals receive an intraperitoneal injection of 0.5 ml. of 1:100 dilution of heparinized heart's blood with a minimum of 90% parasitized cells (4 × 10^7 cells), drawn from donor mice infected one week earlier with Plasmodium berghei. The donor strain is maintained by weekly passages in separate groups of mice inoculated with a 0.5 ml. of 1:500 dilution of heparinized heart's blood.
(§4) Test compounds are administered after dissolution or suspension in peanut oil. A single dose is given subcutaneously 72 hours after the mice are infected with Plasmodium berghei. At this time a 10-15 percent parasitemia has developed; the disease is well established but has not produced sufficient debility to alter the response of the host to toxic effects of the drug on test. Since treatment is withheld for three days to permit the infection to become well established and death occurs in untreated controls within 6-8 days, it is felt that this system presents a candidate compound with the maximum challenge. In order to check factors such as changes in the infectivity of Plasmodium berghei or in the susceptibility of the host or to detect technical errors, a group of infected animals treated with pyrimethamine at dose levels producing definite increases in survival time is included in a positive control in every experiment.
(§5) In each experiment test compounds are administered in graded dosages. […] However, if an active drug is toxic for the host, its toxicity may become a limiting factor; continued increases in dose levels also increase the toxic effects and may result in the diminution of survival times. Deaths prior to the sixth day, when untreated controls begin to die, are regarded as nonparasitic and become the basis for toxicity evaluations. […] In calculating mean survival time, toxic deaths and 60-day survivors are not included.
(§6) Compounds are considered active which produce a cure in at least one test animal or which produce significant increases in mean survival times of the treated animals as compared with the mean survival times of untreated controls, provided that no drug related deaths (toxicity) are noted at the active dose.

A short description of data set [2]: Antimalarial blood schizonticidal test in mice. The class given is in vivo, Plasmodium berghei (infected ICR/HA Swiss mice). On the set-up: ΔMST (increase in mean survival time): unit: days. The conditions noted are these: mouse, in vivo, sc, single dose, infected mice; highest dose with no deaths for any reason; read-out: Highest Non-Lethal Dose.
Description: as §1, §2, §3, §4, §5, §6

The test system of a further data set is S. aureus Smith. The data set can be described thus: In vitro antibacterial activity (MIC), S. aureus Smith. The conditions noted are these: Staphylococcus aureus, 18 h.
A further data set concerns N. catarrhalis 8193. The data set can be described thus: In vitro antibacterial activity (MIC), N. catarrhalis 8193. The conditions noted are these: 18 h.
For a further data set, the system named is P. vulgaris 6896. Description: In vitro antibacterial activity (MIC), P. vulgaris 6896. The conditions noted are these: Proteus vulgaris, 6896, 18 h.
Another data set has as its system S. aureus 53-180. Description: In vitro antibacterial activity (MIC), S. aureus 53-180. The conditions noted are these: Staphylococcus aureus, 53180, 18 h.
The next data set relates to S. paratyphi 11737. Description: In vitro antibacterial activity (MIC), S. paratyphi 11737. Type of data set: cell-based. The conditions noted are these: Salmonella enterica, 18 h.
A further data set concerns K. pneumoniae 10031. Description: In vitro antibacterial activity (MIC), K. pneumoniae 10031. The conditions noted are these: Klebsiella pneumoniae, 10031, 18 h.
The test system of another data set is E. coli 9637. Description: In vitro antibacterial activity (MIC), E. coli 9637. The conditions noted are these: Escherichia coli, 9637, 18 h.

Converted amounts (≈) assume the structure as drawn. Like-named read-outs stand apart in the source and are kept apart here. Where only a bound is given, the exact number is not on record here.

As usually defined, the MIC is the smallest concentration in the dilution series that meets the test's criterion for growth inhibition.

For `COc1cccc(Cn2ccc3c4c(N)nc(N)nc4ccc32)c1` [Example 33], the ED100 in data set [1] (1440 h, s.c., 60-day survivors) worked out at 40 mg/kg. Further, the minimal effective dose in data set [1] (1440 h, s.c., 60-day survivors) is 10 mg/kg. For the same compound, in [1] (s.c., 60-day survivors), the “Cure/Treat at Min. Curing Dose” value is recorded as 1/5. In data set [1] (s.c., dose 5 mg. per kg.), the “ΔMST (increase in mean survival time)” value was 7.6. The MTD in [2] was found to be 40 mg/kg. For the same compound, the minimum inhibitory concentration (MIC) was 3.9 µg/mL (≈ 12.2 µM) against S. aureus Smith; 0.976 µg/mL (≈ 3.06 µM) with N. catarrhalis 8193; 7.81 µg/mL (≈ 24.5 µM) in the data set with P. vulgaris 6896; 0.976 µg/mL (≈ 3.06 µM) against S. aureus 53-180; 7.81 µg/mL (≈ 24.5 µM) in the data set with S. paratyphi 11737; 0.488 µg/mL (≈ 1.53 µM) with K. pneumoniae 10031. In the data set with E. coli 9637, this compound yielded a minimum inhibitory concentration (MIC) of 0.488 µg/mL (≈ 1.53 µM).
Consider `Nc1nc(N)c2c(ccc3c2ccn3Cc2cccnc2)n1` [Example 44], for which the ED100 in [1] (1440 h, s.c., 60-day survivors) is 160 mg/kg. Moreover, the minimal effective dose in data set [1] (1440 h, s.c., 60-day survivors) worked out at 80 mg/kg. In addition, the “Cure/Treat at Min. Curing Dose” value in data set [1] (s.c., 60-day survivors) is 3/5. Moreover, the “ΔMST (increase in mean survival time)” value in data set [1] (s.c., dose 40 mg. per kg.) is recorded as 8.3. Besides, the MTD in [2] amounted to 160 mg/kg. Moreover, the minimum inhibitory concentration (MIC) against S. aureus Smith is 7.81 µg/mL (≈ 26.9 µM); against N. catarrhalis 8193, below 0.0009 µg/mL; in the data set on P. vulgaris 6896, 7.81 µg/mL (≈ 26.9 µM); against S. aureus 53-180 it was 0.976 µg/mL (≈ 3.36 µM); with S. paratyphi 11737, 0.488 µg/mL (≈ 1.68 µM); in the data set on K. pneumoniae 10031, 0.122 µg/mL (≈ 0.42 µM). Besides, 0.488 µg/mL (≈ 1.68 µM) was the least that counted as inhibitory in the data set on E. coli 9637 (MIC).
Regarding `Nc1nc(N)c2c(ccc3c2ccn3Cc2cccc3ccccc23)n1` [Example 47], in data set [1] (1440 h, s.c., 60-day survivors), the ED100 was found to be 20 mg/kg. Moreover, the minimal effective dose in data set [1] (1440 h, s.c., 60-day survivors) was determined as 5 mg/kg. The “Cure/Treat at Min. Curing Dose” value in data set [1] (s.c., 60-day survivors) is 2/5. Besides, the “ΔMST (increase in mean survival time)” value in data set [1] (s.c., dose 5 mg. per kg.) amounted to 9.2. The MTD in data set [2] is 80 mg/kg. In addition, the minimal inhibitory concentration (MIC) was found to be 3.9 µg/mL (≈ 11.5 µM) in the data set on S. aureus Smith; 0.0019 µg/mL (≈ 0.0056 µM) against N. catarrhalis 8193; 31.3 µg/mL (≈ 92.2 µM) in the data set on P. vulgaris 6896; 0.976 µg/mL (≈ 2.88 µM) with S. aureus 53-180; 62.5 µg/mL (≈ 184 µM) against S. paratyphi 11737; 0.976 µg/mL (≈ 2.88 µM) against K. pneumoniae 10031. This compound registered an MIC against E. coli 9637 of 15.6 µg/mL (≈ 46 µM).
In the case of `Nc1nc(N)c2c(ccc3c2ccn3Cc2ccc3ccccc3c2)n1` [Example 48], the ED100 in data set [1] (1440 h, s.c., 60-day survivors) amounted to 40 mg/kg. The minimal effective dose in data set [1] (1440 h, s.c., 60-day survivors) was 20 mg/kg. Moreover, the “Cure/Treat at Min. Curing Dose” value in [1] (s.c., 60-day survivors) is on record as 4/5. Also, the “ΔMST (increase in mean survival time)” value in data set [1] (s.c., dose 5 mg. per kg.) is reported as 7.3. Moreover, the MTD in data set [2] stood at 1160 mg/kg. The minimal inhibitory concentration (MIC) against S. aureus Smith was 125 µg/mL (≈ 368 µM); against N. catarrhalis 8193, 0.244 µg/mL (≈ 0.719 µM); against P. vulgaris 6896 it was above 250 µg/mL; with S. aureus 53-180 it was 125 µg/mL (≈ 368 µM); with S. paratyphi 11737 it was above 250 µg/mL; against K. pneumoniae 10031, 7.81 µg/mL (≈ 23 µM). In the data set with E. coli 9637, the lowest concentration to inhibit growth (MIC) was 250 µg/mL (≈ 737 µM).
In the case of `Cc1ccc2ccccc2c1Cn1ccc2c3c(N)nc(N)nc3ccc21` [Example 49], the ED100 in data set [1] (1440 h, s.c., 60-day survivors) was 20 mg/kg. In addition, the minimal effective dose in data set [1] (this is the lowest dose tested) came to 20 mg/kg. In data set [1] (s.c., 60-day survivors), the “Cure/Treat at Min. Curing Dose” value was 5/5. Moreover, in data set [2], the MTD was found to be 80 mg/kg. Moreover, the minimal inhibitory concentration (MIC) is 125 µg/mL (≈ 354 µM) against S. aureus Smith; 0.122 µg/mL (≈ 0.345 µM) in the data set with N. catarrhalis 8193; above 250 µg/mL with P. vulgaris 6896; 125 µg/mL (≈ 354 µM) against S. aureus 53-180; above 250 µg/mL against S. paratyphi 11737; 15.6 µg/mL (≈ 44.1 µM) in the data set with K. pneumoniae 10031. For the same compound, the MIC with E. coli 9637 was above 250 µg/mL.
In the case of `Nc1nc(N)c2c(ccc3c2ccn3Cc2cccc3cccnc23)n1` [Example 51], the ED100 in [1] (1440 h, s.c., 60-day survivors) is 20 mg/kg. In data set [1] (1440 h, s.c., 60-day survivors), the minimal effective dose turned out to be 5 mg/kg. Besides, in data set [1] (s.c., 60-day survivors), the “Cure/Treat at Min. Curing Dose” value is recorded as 1/5. The “ΔMST (increase in mean survival time)” value in [1] (s.c., dose 5 mg. per kg.) was 6.4. The MTD in [2] came to 40 mg/kg. For the same compound, the MIC against S. aureus Smith was determined as 0.244 µg/mL (≈ 0.717 µM); with N. catarrhalis 8193, 0.0152 µg/mL (≈ 0.0447 µM); against P. vulgaris 6896 it was 7.81 µg/mL (≈ 22.9 µM); against S. aureus 53-180, 0.122 µg/mL (≈ 0.358 µM); with S. paratyphi 11737, 1.95 µg/mL (≈ 5.73 µM); in the data set on K. pneumoniae 10031 it was 0.122 µg/mL (≈ 0.358 µM). This compound gave a minimum inhibitory concentration (MIC) in the data set on E. coli 9637 of 0.244 µg/mL (≈ 0.717 µM).
